Data set [1] concerns P. aeruginosa CCUG 59347. The data set is classed as cell-based. The protocol:
(§1) The inoculum was prepared by making a direct suspension of isolated colonies (selected from an 18-24 hour Mueller-Hinton agar plate) adjusted to the 0.5 McFarland standard. […] The assays were performed in duplicate. […] Several of the compounds were subjected to multiple tests, and where this is the case, the MIC presented is the median value obtained. The MIC values are quoted in μg/mL.

For data set [2], the system named is K. pneumoniae CA64. The format is cell-based. The method, then:
as §1

In data set [3] the test system is E. coli CA58. The format is cell-based. The method, then:
as §1

The test system of data set [4] is P. aeruginosa ATCC 27853. The data set is classed as cell-based. The protocol:
(§2) The inoculum was prepared by making a direct suspension of isolated colonies (selected from an 18-24 hour Mueller-Hinton agar plate) adjusted to the 0.5 McFarland standard. […] The assays were performed in duplicate. […] The MIC values are quoted in μg/mL.

The test system of data set [5] is A. baumannii ATCC BAA-747. The data set is classed as cell-based. The protocol: as §2
In data set [6] the test system is K. pneumoniae ATCC 13822. The data set is classed as cell-based. The protocol:
as §2

The subject of data set [7] is E. coli ATCC 25922. The format is cell-based. The protocol:
as §2

The subject of data set [8] is A. baumannii NCTC 13424. The format is cell-based. The protocol:
as §2

For data set [9], the system named is HK-2 cells. Nature of the data set: In vitro renal cell toxicity assay (HK-2). The data set is classed as cell-based. The method, then: The in vitro renal cell toxicity assay was performed according to the following protocol. […] Cells were seeded at 7,500 cells per well in 96-well plates and allowed to adhere overnight. […] Water and DMSO levels were kept constant at 5% and 0.5% respectively. The test compounds were incubated with cells for 24 h at 37° C. 5% CO2 in a humidified atmosphere. […] Media only background values were subtracted before the data was analysed using GraphPad Prism. Individual values were normalised to the vehicle control wells for each compound. Compound concentration values were plotted as log values to enable a dose-response curve to be fitted. The bottom of the curve was constrained to zero and IC50 values were determined. IC50 values are expressed relative to that for PMB in the same experiment. Where multiple determinations have been made, median values are presented.

A short description of data set [10]: Kidney drug level after subcutaneous dose in mouse. The format is in vivo. The note with it: mouse, in vivo, sc, 17.2 mg/kg. The protocol: Four hours after dosing the animals were euthanised and kidneys removed, trimmed of fat and connective tissue, weighed and immediately snap-frozen. After thawing at room temperature, pairs of kidneys from each animal were placed in 2 mL conical tubes containing pre-weighed ceria-stabilised zirconium oxide beads. […] After 10 min. centrifugation at 13,000 rpm and 6° C., 200 μl of the supernatants were transferred into glass inserts and analysed by LC-MS-MS.

Data set [11] is described as follows: Renal toxicity of Example 24 vs PMB after four doses in mouse. The format is in vivo, mouse. The conditions noted are these: mouse, in vivo, sc. The protocol:
Immediately after the fourth dose mice were transferred to metabolic cages and urine collected for 24 h. for determination of urinary biomarkers. After urine collection mice were sacrificed for renal histopathology.
The urine biomarkers were normalized to urinary creatinine.

The mark [12] stands for this setting: cation-adjusted Mueller-Hinton Broth, 18-20 h, 35° C.

Structures are written as SMILES. Values after ≈ are worked out from the molar mass of the structure shown. Like-named read-outs stand apart in the source and are kept apart here. Where a SMILES comes first, the peptide text is derived from it. Bridges are numbered along the chain shown (N, C = ends). [ ]: non-standard residue; d: D form. The star is where a group is joined. X2 = NC[C@@H](CC(=O)*)c1cccc(-c2ccccc2)c1; X9 = CC(C)c1cccc([C@H](CN)CC(=O)*)c1; X16 = NC[C@H](CC(=O)*)Cc1cccc(Cl)c1; X15 = NC[C@@H](CC(=O)*)c1ccccc1Cl; Dab = NCC[C@H](N)C(=O)O; Abu = CC[C@H](N)C(=O)O; Dap = NC[C@H](N)C(=O)O

On to `CC(C)C[C@@H]1NC(=O)[C@@H](CC(C)C)NC(=O)[C@H](CCN)NC(=O)[C@@H](NC(=O)[C@H](CN)NC(=O)[C@@H](NC(=O)C[C@@H](CN)c2cccc(C(C)C)c2)[C@@H](C)O)CCNC(=O)[C@H]([C@@H](C)O)NC(=O)[C@H](CCN)NC(=O)[C@H](CCN)NC1=O` [Example 16, (R)-4-amino-3-(3- isopropylphenyl) butanoyl-Thr-Dap- Cyclo[Dab-Dab-DLeu- Leu-Dab-Dab-Thr]] (X9-T[Dap][Dab][Dab][dL]L[Dab][Dab]T; lactam 3-C), for which the “MIC P. aeruginosa CCUG 59347” value in data set [1] (setting [12]) was determined as 1 µg/mL (≈ 0.894 µM). The “MIC K. pneumoniae CA64” value in data set [2] (setting [12]) turned out to be 8 µg/mL (≈ 7.15 µM). Further, in data set [3] (setting [12]), the “MIC E. coli CA58” value stood at 16 µg/mL (≈ 14.3 µM). Besides, in data set [4] (setting [12]), the “MIC P. aeruginosa ATCC 27853” value was 0.5 µg/mL (≈ 0.447 µM). In data set [5] (setting [12]), the “MIC A. baumannii ATCC BAA-747” value turned out to be 0.5 µg/mL (≈ 0.447 µM). For the same compound, the “MIC K. pneumoniae ATCC 13822” value in data set [6] (setting [12]) turned out to be 0.25 µg/mL (≈ 0.224 µM). Besides, the “MIC E. coli ATCC 25922” value in [7] (setting [12]) is 0.5 µg/mL (≈ 0.447 µM). Also, the “MIC A. baumannii NCTC 13424” value in data set [8] (setting [12]) is 0.5 µg/mL (≈ 0.447 µM).
Turning to `CC(C)C[C@@H]1NC(=O)[C@@H](Cc2ccccc2)NC(=O)[C@H](CCN)NC(=O)[C@@H](NC(=O)[C@H](CN)NC(=O)[C@@H](NC(=O)C[C@H](CN)c2ccccc2Cl)[C@@H](C)O)CCNC(=O)[C@H]([C@@H](C)O)NC(=O)[C@H](CCN)NC(=O)[C@H](CCN)NC1=O` [Example 3, (S)-4-amino-3-(2- chlorophenyl)butanoyl- Thr-Dap-Cyclo[Dab- Dab-DPhe-Leu-Dab- Dab-Thr]] (X15-T[Dap][Dab][Dab][dF]L[Dab][Dab]T; lactam 3-C), the “MIC P. aeruginosa CCUG 59347” value in [1] (setting [12]) turned out to be 0.5 µg/mL (≈ 0.437 µM). In addition, the “MIC K. pneumoniae CA64” value in [2] (setting [12]) stood at 65 µg/mL (≈ 56.8 µM). Further, in [3] (setting [12]), the “MIC E. coli CA58” value was 32 µg/mL (≈ 28 µM). Further, in data set [4] (setting [12]), the “MIC P. aeruginosa ATCC 27853” value was 0.5 µg/mL (≈ 0.437 µM). Besides, in [5] (setting [12]), the “MIC A. baumannii ATCC BAA-747” value stood at 2 µg/mL (≈ 1.75 µM). Further, in data set [6] (setting [12]), the “MIC K. pneumoniae ATCC 13822” value is 0.5 µg/mL (≈ 0.437 µM). Besides, the “MIC E. coli ATCC 25922” value in [7] (setting [12]) was 1 µg/mL (≈ 0.874 µM). Also, in data set [8] (setting [12]), the “MIC A. baumannii NCTC 13424” value came out at 1 µg/mL (≈ 0.874 µM).
With `CC(C)C[C@@H]1NC(=O)[C@@H](CC(C)C)NC(=O)[C@H](CCN)NC(=O)[C@@H](NC(=O)[C@H](CN)NC(=O)[C@@H](NC(=O)C[C@@H](CN)Cc2cccc(Cl)c2)[C@@H](C)O)CCNC(=O)[C@H]([C@@H](C)O)NC(=O)[C@H](CCN)NC(=O)[C@H](CCN)NC1=O` [Example 13, (S)-4-amino-3-(3- chlorobenzyl)butanoyl- Thr-Dap-Cyclo[Dab- Dab-DLeu-Leu-Dab- Dab-Thr], Isomer 2] (X16-T[Dap][Dab][Dab][dL]L[Dab][Dab]T; lactam 3-C), the “MIC P. aeruginosa CCUG 59347” value in data set [1] (CCUG 59347) amounted to 0.5 µg/mL (≈ 0.445 µM). Further, the “MIC K. pneumoniae CA64” value in data set [2] (CA64) amounted to 16 µg/mL (≈ 14.2 µM). In [3] (CA58), the “MIC E. coli CA58” value is 8 µg/mL (≈ 7.11 µM). Besides, the “MIC P. aeruginosa ATCC 27853” value in data set [4] (ATCC 27853) turned out to be 0.25 µg/mL (≈ 0.222 µM). In data set [5] (ATCC BAA-747), the “MIC A. baumannii ATCC BAA-747” value turned out to be 0.5 µg/mL (≈ 0.445 µM). For the same compound, the “MIC K. pneumoniae ATCC 13822” value in data set [6] (ATCC 13822) turned out to be 0.5 µg/mL (≈ 0.445 µM). For the same compound, in [7] (ATCC 25922), the “MIC E. coli ATCC 25922” value turned out to be 0.5 µg/mL (≈ 0.445 µM). Further, the “MIC A. baumannii NCTC 13424” value in [8] (NCTC 13424) was 0.5 µg/mL (≈ 0.445 µM).
`CC[C@@H]1NC(=O)[C@@H](CC(C)C)NC(=O)[C@H](CCN)NC(=O)[C@@H](NC(=O)[C@H](CN)NC(=O)[C@@H](NC(=O)C[C@H](CN)c2cccc(-c3ccccc3)c2)[C@@H](C)O)CCNC(=O)[C@H]([C@@H](C)O)NC(=O)[C@H](CCN)NC(=O)[C@H](CCN)NC1=O` [Example 24, (S)-3-(1,1′-biphenyl- 3-yl)-4-aminobutanoyl-Thr- Dap-Cyclo[Dab-Dab- DLeu-Abu-Dab-Dab- Thr]] (X2-T[Dap][Dab][Dab][dL][Abu][Dab][Dab]T; lactam 3-C): the “MIC P. aeruginosa CCUG 59347” value in data set [1] (CCUG 59347) stood at 0.25 µg/mL (≈ 0.222 µM). Further, the “MIC K. pneumoniae CA64” value in data set [2] (CA64) came to 16 µg/mL (≈ 14.2 µM). Moreover, in data set [3] (CA58), the “MIC E. coli CA58” value turned out to be 4 µg/mL (≈ 3.56 µM). The “HK-2 rel to PMB” value in data set [9] worked out at 21.8. The tissue level at time at 4 h in [10] is 203000 ng/g. In data set [5] (ATCC BAA-747), the “MIC A. baumannii ATCC BAA-747” value turned out to be 0.03 µg/mL (≈ 0.0267 µM). For the same compound, in data set [6] (ATCC 13822), the “MIC K. pneumoniae ATCC 13822” value came out at 0.25 µg/mL (≈ 0.222 µM). In data set [8] (NCTC 13424), the “MIC A. baumannii NCTC 13424” value came to 0.06 µg/mL (≈ 0.0534 µM). In data set [11] (25 mg/kg), the “Basophilic Tubules (cortex) (animals affected)” value (from here on “Basophilic Tubules (cortex)”) is 0/5; the “Mitotic Figures increased (animals affected)” value (from here on “Mitotic Figures increased”) is given as 0/5; the “Tubular Degeneration/necrosis (histopathology, animals affected)” value is 0/5; the “Urine Albumin” value amounted to 4.78. In data set [11] (25 mg/kg), the “Urine Cystatin C” value is recorded as 31.04, the “Urine Kim-1” value is recorded as 27.61, the “Urine NGAL” value is 0.00 and the “Urine β-2 microglobulin” value was 0.05. In data set [11] (50 mg/kg), the “Basophilic Tubules (cortex)” value was 2/5 (2 min); the “Mitotic Figures increased” value is reported as 2/5 (2 min); the “Tubular Degeneration/necrosis (histopathology, animals affected)” value is 2/5 (2 min); the “Urine Albumin” value worked out at 6.95. In [11] (50 mg/kg), the “Urine Cystatin C” value turned out to be 33.97, the “Urine Kim-1” value turned out to be 171.59, the “Urine NGAL” value amounted to 0.63 and the “Urine β-2 microglobulin” value stood at 13.22. Further, in [11] (75 mg/kg), the “Basophilic Tubules (cortex)” value is 5/5 (2 min/; the “Mitotic Figures increased” value is recorded as 5/5 (5 min); the “Tubular Degeneration/necrosis (histopathology, animals affected)” value is recorded as 5/5 (1 min/; the “Urine Albumin” value was 10.93. In data set [11] (75 mg/kg), the “Urine Cystatin C” value is listed as 81.44, the “Urine Kim-1” value is recorded as 1,203.41, the “Urine NGAL” value turned out to be 3.71 and the “Urine β-2 microglobulin” value amounted to 68.51.
